Laboratory results from patent US8450348B2, “Derivatives of squaric acid with anti-proliferative activity” (Forma TM, LLC, priority 2007, dated 2013).

Key:
Type in all cases: cell-based
A2780 [1] = assay: SRB assay, % inhibition of tumor cell growth (Example 61); settings: Homo sapiens, 48 hours, vs DMSO-treated cells
Method: (§1) 3,000-15,000 cells/well were exposed to the test compounds at a concentration of 1 μM for 48 hours, and cytotoxicity was measured using the SRB assay according to Shekan et al (J Natl Cancer Inst (1990) 82, 1107-112). Briefly, cells were plated in 96 well dishes 24 hours prior to compound addition. The assay was terminated with the addition of cold TCA to a final concentration of 10% and the plates were incubated for one hour at 4° C. The plates were then washed 5 times with water and 100 μl of a Sulforhodamine B solution ([…]) was added to each well. The plate was then incubated for 10 minutes at room temperature before removal of unbound dye by washing with 1% acetic acid. The bound dye was solubilized with 10 mM Trizma base and the absorbance read at OD570. Inhibitory activity of the compounds was calculated as % inhibition compared to cells treated with the solvent (DMSO). Table 2 represents the growth inhibitory activity of certain compounds of the invention across a number of tumor cell lines.

HCT-116 [2] = assay: as above; settings: Homo sapiens, 48 hours, vs DMSO-treated cells
Method: as §1

MCF7 [3] = assay: as above; settings: Homo sapiens, 48 hours, vs DMSO-treated cells
Method: as §1

PC-3 = assay: as above; settings: Homo sapiens, 48 hours, vs DMSO-treated cells
Method: as §1

SW-620 [4] = assay: as above; settings: Homo sapiens, 48 hours, vs DMSO-treated cells
Method: as §1

HCT-116 [5] = assay: IC50 determination, SRB assay (Example 62); settings: Homo sapiens, estimated from fitted curve, growth inhibition
Method: as §1
(§2) The assay was performed similar to example 61. However, test compounds were added at various concentrations, such as from 0.001 to about 0.1 μM, from 0.1 to about 10 μM, or from 1 to about 10 μM, as the need may be, in order to estimate the IC50 values. IC50 values were determined by plotting the percentage inhibitory activity for each concentration, fitting a curve using appropriate software and estimating the concentration at which 50% inhibition of growth would occur.

MCF7 [6] = assay: IC50 determination, SRB assay (Example 62); settings: Homo sapiens, estimated from fitted curve, growth inhibition
Method: as §1, §2

SW-620 [7] = assay: IC50 determination, SRB assay (Example 62); settings: Homo sapiens, estimated from fitted curve, growth inhibition
Method: as §1, §2

A2780 [8] = assay: IC50 determination, SRB assay (Example 62); settings: Homo sapiens, estimated from fitted curve, growth inhibition
Method: as §1, §2

A-549 = assay: SRB assay, % inhibition of tumor cell growth (Example 61); settings: Homo sapiens, A549, 48 hours, vs DMSO-treated cells
Method: as §1

Row | IC50 (HCT-116 [5]) [µM] | IC50 (SW-620 [7]) [µM] | Structure (SMILES) | inhibition at 1 µM (A2780 [1]) [%] | inhibition at 1 µM (HCT-116 [2]) [%] | inhibition at 1 µM (MCF7 [3]) [%] | inhibition at 1 µM (PC-3) [%] | inhibition at 1 µM (SW-620 [4]) [%] | IC50 (MCF7 [6]) [µM] | IC50 (A2780 [8]) [µM] | inhibition at 1 µM (A-549) [%]
1 | < 0.1 | < 2 | O=c1c(NCCc2ccc(Oc3ccccc3)cc2)c(Nc2cccnc2)c1=O [SQ-5, 3-[2-(4-Phenoxyphenyl)-ethylamino]-4-(pyridin-3-yl-amino)-cyclobut-3-ene-1,2-dione] | > 80 | > 80 | > 50 | > 50 | 0 | < 10 | – | –
2 | < 0.1 | < 0.5 | O=c1c(NCCCCCCOc2ccc(Cl)c(Cl)c2)c(Nc2ccncc2)c1=O [SQ-15] | > 80 | > 80 | > 20 | > 50 | > 20 | – | – | > 20
3 | – | – | O=c1c(NCc2ccc(Oc3ccccc3)cc2)c(Nc2cccnc2)c1=O [SQ-34, 3-(4-Phenoxy-benzylamino)-4-(pyridin-3-ylamino)-cyclobut-3-ene-1,2-dione] | > 20 | > 20 | – | > 0 | 0 | – | – | 0

Row | Structure (SMILES) | IC50 (HCT-116 [5]) [µM] | IC50 (SW-620 [7]) [µM] | inhibition at 1 µM (A2780 [1]) [%] | inhibition at 1 µM (HCT-116 [2]) [%] | inhibition at 1 µM (MCF7 [3]) [%] | inhibition at 1 µM (PC-3) [%] | inhibition at 1 µM (SW-620 [4]) [%] | IC50 (MCF7 [6]) [µM] | IC50 (A2780 [8]) [µM] | inhibition at 1 µM (A-549) [%]
4 | O=c1c(NCCCCCCOc2ccc(Cl)cc2)c(Nc2ccncc2)c1=O [SQ-7B] | < 0.1 | – | > 80 | > 80 | – | > 50 | > 50 | < 0.1 | < 0.1 | –
